# According to patent US8093286B2, “Methods for treatment with bucindolol based on genetic targeting” (The Regents of the University of Colorado, a body corporate, priority 2004, dated 2012):
# Entries after “also recorded” stand apart in the source; their conditions may differ. Structures can show the parent of a compound that is named as a salt.
# What was measured:
# [1] = system: nonfailing human right ventricular trabeculae; experiment: contractile response of isolated right ventricular trabeculae from nonfailing human hearts; conditions: with and without forskolin
# Method: Nonfailing hearts were obtained from local potential organ donors whose hearts were not transplanted because of physical or ABO blood type incompatibility. Failing hearts were from patients with end-stage heart failure due to ischemic or non-ischemic dilated cardiomyopathies who underwent cardiac transplantation. The demographic characteristics of the hearts are provided in Results. The contractile response of isolated, field stimulated, human trabeculae was assessed as previously described {1755; a-c}. Trabeculae of uniform size (1 to 2×6 to 8 mm) were mounted in 80 ml muscle bath chambers in Tyrode's solution at pH 7.45 bubbled with 95% O2-5% CO2 at 36^0. After equilibration, a tension of 75% of Lmax was applied to each individual trabeculum. Field-stimulation by a 5-ms pulse at 10% above threshold was then applied, and after equilibration full dose-response curves to isoproterenol, bucindolol or xamoterol were performed using the indicated concentrations and application of increasing doses every 5 minutes. In experiments in which forskolin was used to enhance signal transduction {e,f}, 10^−6 M of this adenylyl cyclase activator was applied to the tissue baths 15-20 minutes prior to the performance of dose-response curves, and allowed to achieve stability of tension response. Systolic tension at each dose was calculated as the stimulated tension in mN/mm^2 minus baseline tension. The maximum tension, concentration of isoproterenol that produced 50% of the maximum developed tension (EC50) and curve slope were computed by nonlinear repeated measures analysis of covariance. […] Statistical methods were employed as described in Examples 3 and 4.
# β1-Gly389 receptor [2] = molecular target: T1, β1-Gly389 receptor (Homo sapiens, UniProt P08588); experiment: 125I-cyanopindolol competition binding in transfected cells; conditions: 125I-CYP competition, n=3; read-out: affinity for bucindolol (pKi) (converted)
# T1 construct: expressed in transfected cells
# Method: (§1) Chinese hamster fibroblasts were stably transfected using constructs previously described so as to separately express the human β1-Arg389 or β1-Gly389 receptors. β1AR expression, and affinity for bucindolol, were determined by radioligand binding studies with ^125I-cyanopindolol (125I-CYP), using 1 μM propranolol to define nonspecific binding as described. Whole cell cAMP accumulation studies were carried out by the [^3H]-adenine method using two lines with equivalent expression levels of the two receptors as indicated. Attached cells were exposed to vehicle (basal), 10 μM norepinephrine or 10 uM norepinephrine with the indicated concentrations of bucindolol for 15 min at 37° C.
# β1-Arg389 receptor [3] = molecular target: T2, β1-Arg389 receptor (Homo sapiens, UniProt P08588, G389R); experiment: as above; conditions: 125I-CYP competition, n=3; read-out: affinity for bucindolol (pKi) (converted)
# T2 construct: expressed in transfected cells
# Method: as §1
# [4] = system: patients with Class III/IV heart failure; conditions: cited from earlier work
# [5] = system: advanced heart failure patients; experiment: proposed bucindolol vs metoprolol CR/XL trial (Study Design II); assay type: in vivo, human
# Description: In Study Design II (FIG. 28) for an additional study design, patients with symptomatic and advanced heart failure (reinforced by the heart failure hospitalization history over the preceding year; therefore, patients who are Class II at the time of screening are allowed in the trial) and LVEFs≦0.35 (the general description of the BEST Trial population) are initially screened for the absence of the α2c 322-325 DEL polymorphism, in the carrier state (either heterozygous or homozygous). […]
# The primary endpoint of the trial is noninferiority against metoprolol CR/XL (TOPROL-XL), using the 95% upper confidence limit (UCL) of the time to mortality plus heart failure hospitalization endpoint hazard ratio that was measured in the MERIT-HF trial (Hjalmarson et al. 2000). […] The 95% upper confidence limit for the hazard ratio (UCL) for bucindolol:metoprolol CR/XL (“noninferiority margin”) has been determined from the formula (Hasselblad et al., 2001) {(UCL bucindolol:metoprolol CR/XL)*(UCL metoprolol CR/XL:placebo)≦1.0}; using the MERIT-HF entire cohort UCL of 0.80 for metoprolol:placebo yields x*0.80≦1.0, or a noninferiority margin x≦1.25. […]
# β1-Gly389 receptor [6] = molecular target: T1, β1-Gly389 receptor; experiment: norepinephrine-stimulated cAMP accumulation in stably transfected CHW cells (functional antagonism); assay type: cell-based
# Method: (§2) Chinese hamster fibroblasts (CHW cells) were stably transfected with the human Arg389 and Gly389 cDNAs as previously described (Mason et al., 1999). Lines with equivalent levels of expression as determined by radioligand binding were studied to ascertain the antagonist effect of bucindolol on norepinephrine stimulated cAMP accumulation. Cells in monolayers were treated with 10 μM norepinephrine in the absence and presence of various concentrations of bucindolol for 20 min at 37° C. and [^3H]cAMP isolated by column chromatography (Salomon, 1991).
# as §1
# β1-Arg389 receptor [7] = molecular target: T2, β1-Arg389 receptor; experiment: as above; assay type: cell-based
# Method: as §2, §1
# [8] = bucindolol alone up to 10 μM, hydrochloride
# T2 sequence (P08588 whole entry G389R): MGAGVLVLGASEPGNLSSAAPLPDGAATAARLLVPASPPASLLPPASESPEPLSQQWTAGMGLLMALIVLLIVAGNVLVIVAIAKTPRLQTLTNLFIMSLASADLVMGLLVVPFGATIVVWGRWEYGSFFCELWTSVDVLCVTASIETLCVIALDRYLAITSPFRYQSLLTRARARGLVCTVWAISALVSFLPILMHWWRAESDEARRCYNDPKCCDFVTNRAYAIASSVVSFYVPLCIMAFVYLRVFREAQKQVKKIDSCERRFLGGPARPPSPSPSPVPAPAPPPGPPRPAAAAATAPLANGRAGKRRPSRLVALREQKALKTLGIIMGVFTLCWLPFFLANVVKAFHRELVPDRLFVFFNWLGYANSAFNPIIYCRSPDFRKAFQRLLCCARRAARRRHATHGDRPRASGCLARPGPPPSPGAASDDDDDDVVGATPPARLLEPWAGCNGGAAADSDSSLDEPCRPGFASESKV
# T1 sequence (P08588 whole entry): as the sequence (P08588 whole entry G389R) above, with R389G counted along it
compound,measurement,setting,value
"CC(C)(Cc1c[nH]c2ccccc12)NCC(O)COc1ccccc1C#N (stereo not shown) [bucindolol, (2-{2-hydroxy-3{{2-(3-indolyl)-1,1-dimethylethyl}amino}propoxy}-benzonitrile hydrochloride)]",intrinsic sympathomimetic activity (increase in force),[1],no evidence of ISA
same,Ki,β1-Gly389 receptor [2],251 pM
same,Ki,β1-Arg389 receptor [3],251 pM
same,"HF Hospitalization hazard ratio, bucindolol vs placebo",[4]; BEST entire cohort (n = 2708),0.78; 1045 Ev
same,"Mortality + HF Hospitalization hazard ratio, bucindolol vs placebo",[4]; BEST entire cohort (n = 2708),0.81; 1421 Ev
same,reduction in all-cause mortality,[4]; BEST entire cohort,10%
same,reduction in mortality or heart failure hospitalization,[4]; BEST entire cohort,19%
same,reduction in event rate (death or heart failure hospitalization),"[4]; Class III patients, overall",22%
same,increase in combined endpoint of death or heart failure hospitalization,"[4]; Class IV patients, first 6 months of treatment",1.7 fold
same,"expected hazard ratio bucindolol vs. metoprolol CR/XL, mortality plus HF hospitalization","[5]; α2c WT/WT U.S. population, 0.72/0.84",0.86
same,"expected hazard ratio bucindolol:metoprolol CR/XL, mortality+HF hospitalizations","[5]; β1-389 Arg/Arg + α2c wild type vs MERIT U.S. data, 0.61/0.84",0.73
same,maximal decrease of cAMP,"β1-Gly389 receptor [6]; 10 μM norepinephrine + bucindolol, Gly389 cells, N=4",115 ± 23 fmol/mL
same,stimulation of cAMP by bucindolol alone (intrinsic sympathomimetic activity),β1-Gly389 receptor [6]; [8],no stimulation of cAMP; also recorded: no evidence for intrinsic sympathomimetic activity
same,inhibition at 0.1 µM,"β1-Arg389 receptor [7]; 0.1 μM bucindolol, read-out: inhibition of the Arg389 cAMP response",~80%
same,maximal decrease of cAMP,"β1-Arg389 receptor [7]; 10 μM norepinephrine + bucindolol, Arg389 cells, N=4",435 ± 80 fmol/mL
same,stimulation of cAMP by bucindolol alone (intrinsic sympathomimetic activity),β1-Arg389 receptor [7]; [8],no stimulation of cAMP; also recorded: no evidence for intrinsic sympathomimetic activity
